Experimental data taken from PubChem BioAssay AID449762 (Southern Research Specialized Biocontainment Screening …, 2010).
Records with an inconclusive call do not appear.

Test system: M. tuberculosis H37Rv growth inhibition, 7H9 media
Assay: M. tuberculosis growth inhibition, HTS (AID 449762);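 further: bacterial growth assessed after seven days of incubation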
Conditions: for IC90: measured here: IC90 growth inhibition

Structure (SMILES)	IC50	IC90
CCOc1ccc(-n2c(O)c(/C=N/Nc3nnc(C)c(=O)[nH]3)c3ccccc3c2=O)cc1	11.3 µM	> 100 µM
CC1CCN(C(=O)C2CCN(c3nnc(-n4cccc4)s3)CC2)CC1	2.96 µM	3.37 µM
COc1ccc2nc(NC(=O)C3CCCN(S(=O)(=O)c4cccs4)C3)sc2c1 (stereo not drawn)	18 µM	27.6 µM
COc1ccc(-n2cc(CNCCc3cscn3)c(-c3ccccc3Cl)n2)cc1	25.6 µM	29.7 µM
O=C1Nc2ccc(Br)cc2/C1=C/C(=O)c1ccc2c(c1)OCO2	7.71 µM	18.1 µM
Cn1nc(-c2ccccc2F)c2cc(C(=O)Nc3ccc4c(c3)OCCO4)sc21	17.7 µM	35.5 µM
O=[N+]([O-])c1ncccc1Oc1nc(-c2cccnc2)nc2ccccc12	< 0.2 µM	1.36 µM
COc1cccc2c1C(CO)N1C(C#N)C3CC(C(=O)O)C(C1C2)N3C (stereo not drawn)	2.69 µM	2.98 µM
S=C(Nc1ccc(Cl)cc1)Nc1cccc2cnccc12	4.42 µM	5.24 µM
CCOc1ccc(C2c3[nH]c4ccccc4c3C[C@H]3C(=O)N(C4CCN(Cc5ccccc5)CC4)CC(=O)N23)cc1OC (stereo partly drawn)	21.5 µM	29.7 µM
N=c1oc2cc(O)ccc2cc1C(=O)Nc1ccc(Br)cc1	0.86 µM	4.2 µM
CC(=O)Nc1sc2c(c1-c1nc3ccccc3s1)CCN(C(C)C)C2	5.88 µM	6.66 µM
Clc1nc2c(-c3ccccc3)nnn2c2ccccc12	9.39 µM	16.6 µM
Cc1ccc(C)c(-c2nn(-c3cc(N4CCN(CCO)CC4)ccc3[N+](=O)[O-])c(=O)c3ccccc23)c1	12.7 µM	28.7 µM
C/C(=N\NC(=S)NCC(C)(C)C)c1cc(F)cc(F)c1O	1.22 µM	8.86 µM
Nc1nonc1C(=O)NCCNCc1c(OCc2ccccc2F)ccc2ccccc12	39.8 µM	50.5 µM
Cc1ccc(C)c(NNC(N)=S)c1	6.39 µM	15.6 µM
Cc1ccc(Cn2nnnc2CN2CCC(c3nc4ccc(Cl)cc4[nH]3)CC2)cc1	26 µM	35.9 µM
Cc1nn(CCc2nn[nH]n2)c2nc(-c3ccc(Br)cc3)cc(C(F)(F)F)c12	4.64 µM	10.8 µM
O=C(c1cc2cc(F)ccc2[nH]1)N(Cc1cccnc1)CC1CCCN(C2CCCCC2)C1 (stereo not drawn)	25 µM	33.6 µM
c1ccc2c(c1)CCN(c1nc3cc4c(cc3s1)OCCO4)C2	7.45 µM	16.9 µM
COc1ccccc1NC(=O)c1ccc(NC(=O)CSc2nnnn2C)cc1	2.89 µM	13.8 µM

Structure (SMILES)	IC50	IC90
CCc1nc(N2CCN(C(C)=O)CC2)c2c3c(sc2n1)CC(C(C)(C)C)CC3 (stereo not drawn)	12.8 µM	14.1 µM
COC(=O)c1ccc(/C=C/c2c(-c3ccsc3)oc3ccc(N4CCOCC4)cc23)cc1	21.2 µM	41.2 µM
O=C(/C=C/Sc1ncn[nH]1)c1ccc(Cl)cc1	16.8 µM	43.8 µM
CCC(=O)N1c2ccc(S(=O)(=O)CCC(=O)N3CCn4c3nc3ccccc34)cc2CC1C (stereo not drawn)	9.28 µM	19.5 µM
COc1ccc(N/N=C(/N=Nc2nc(C)cc(=O)[nH]2)c2ccccc2)cc1	5.91 µM	6.69 µM
O=C1Nc2ccc(Br)cc2C12NNc1ccccc1O2 (stereo not drawn)	23.3 µM	43.6 µM
O=C(N/N=C/c1ccc([N+](=O)[O-])o1)c1sc2ccccc2c1Cl	2.65 µM	4.6 µM
CC(OC(=O)COc1ccc(Nc2ccccc2)cc1)C(=O)N(C)c1ccccc1 (stereo not drawn)	< 0.2 µM	4.17 µM
Cc1nc([N+](=O)[O-])c(Br)n1CC(=O)c1ccc2ccccc2c1	2.15 µM	11.9 µM
CCOc1cc(-c2c(C#N)c(=O)[nH]c3c2c(C)nn3-c2ccc(F)cc2)ccc1O	1.21 µM	4.98 µM
Cn1nc([N+](=O)[O-])nc1Sc1ccc(C(C)(C)C)cc1	6.13 µM	7.62 µM
CCOC(=O)C1CCN(c2nc3cc(OC)ccc3cc2C#N)CC1	52.7 µM	> 100 µM
O=C(/C=C/c1ccco1)Nc1cccc(-c2nc3ccccc3[nH]2)c1	78.5 µM	> 100 µM
Cc1ccc(C(=O)/C=C/C(=O)c2ccc(C)cc2)cc1	2.05 µM	7.63 µM
CCc1cc(OCCCCNCc2ccccc2)ccc1Cl	26.3 µM	30.4 µM
COc1cccc(-n2nnc3c(=O)n(CC(=O)N4CCC(Cc5ccccc5)CC4)cnc32)c1	23.2 µM	36.7 µM
Cc1cc2nc(/N=C(\N)NC(=O)C(C)C)nc(C)c2cc1C	4.67 µM	61.2 µM
CCCCOC(=O)c1c(C)oc2ccc(NS(=O)(=O)c3ccc4c5c(cccc35)C(=O)N4)cc12	78.7 µM	> 100 µM
C=CCOc1ccc(/C=C/C(=O)OCC(=O)NCC2CCCO2)cc1 (stereo not drawn)	98.7 µM	> 100 µM
O=C(c1ccccc1)C1CN(Cc2ccccc2)CCC1(O)c1ccccc1 (stereo not drawn)	9.4 µM	14.6 µM
CCOC(=O)COc1cc([N+](=O)[O-])cc2cccnc12	15.2 µM	34.6 µM
Brc1ccc2c(c1)C(OC1CN3CCC1CC3)c1ccccc1CS2 (stereo not drawn)	25.2 µM	28.4 µM
